Assay: Antioxidant activity assessed as hydroxyl radical scavenging activity
Type: functional

O=c1c(O)c(-c2ccc(O)c(O)c2)oc2cc(O)cc(O)c12 [QUERCETIN]
IC50: 110 µM

C=C1C[C@@]23CC[C@H]4[C@@](C)(CCC[C@@]4(C)C(=O)O[C@@H]4O[C@H](CO)[C@@H](O)[C@H](O)[C@H]4O)[C@@H]2CC[C@]1(O[C@@H]1O[C@H](CO)[C@@H](O)[C@H](O)[C@H]1O[C@@H]1O[C@H](CO)[C@@H](O)[C@H](O)[C@H]1O)C3 [STEVIOSIDE]
IC50: 1500 µM

From ChEMBL document CHEMBL2390831, “Steviol glycosides: chemical diversity, metabolism, and function” (J Nat Prod, 2013)
